Legend:
[1] = tested on: Pasteurella multocida (bovine); assay: Standard agar-dilution assay, MIC (Table VI); assay type: cell-based
Source text: (§1) Antibiotic A-32887 inhibits the growth of pathogenic bacteria, especially gram-positive bacteria. Table VI summarizes the minimal inhibitory concentrations (MIC), as measured by standard agar-dilution assays, at which A-32887 (Na-K salt) inhibits certain bacteria.

[2] = tested on: Staphylococcus aureus 3055; assay: Standard agar-dilution assay, MIC (Table VI); assay type: cell-based
Source text: as §1

Staphylococcus sp. = assay: Standard agar-dilution assay, MIC (Table VI); assay type: cell-based
Source text: as §1

Streptococcus faecalis = assay: Standard agar-dilution assay, MIC (Table VI); assay type: cell-based
Source text: as §1

Streptococcus sp. = assay: Standard agar-dilution assay, MIC (Table VI); assay type: cell-based
Source text: as §1

Mycoplasma gallisepticum = assay: In vitro broth-dilution studies, mycoplasma (Table X); assay type: cell-based
Source text: (§2) Activity against mycoplasma is another useful aspect of the antimicrobial activity of the A-32887 compounds. Mycoplasma species, also known as pleuropneumonia-like (PPLO) organisms, are pathogenic to man and various animals. Anti-mycoplasma agents are especially needed by the poultry industry. The MIC's of A-32887 (Na-K salt) against typical mycoplasma species, as determined by in vitro broth-dilution studies, are summarized in Table X: […]

Mycoplasma hyopneumoniae = assay: as above; assay type: cell-based
Source text: as §2

Mycoplasma hyorhinis = assay: as above; assay type: cell-based
Source text: as §2

Mycoplasma synoviae = assay: as above; assay type: cell-based
Source text: as §2

E. tenella and E. maxima = assay: Anticoccidial activity in chicks (Table XI); assay type: in vivo; set-up: Average Lesion Score, Total Intestinal / Average Lesion Score, Cecal: scale not given here; conditions: for Mortality: due to coccidiosis; for Feed/Gain: pens without deaths only; for Average Weight Gain: per survivor
Description: ^1 70,000 oocysts/bird of each of E. tenella and E. maxima
^2 Infected 48 hours postmedication; terminated seven days
^3 Four replicates; five birds/replicate
^6 Pens without deaths only

[3] = tested on: E. tenella and E. acervulina; assay: Anticoccidial activity in chicks (Table XII); assay type: in vivo; set-up: Average Lesion Score, Intestinal / Average Lesion Score, Cecal: scale not given here; conditions: for Oocysts Per Bird: days 7-9; for Percent Mortality: due to coccidiosis; for Percent Weight Gain: normal controls = 100%
Description: ^1 6 replicates; 5 birds each
^2 Infection inoculum 48 hours post-medication onset
^4 Normal controls = 100%

[4] = tested on: E. tenella, E. maxima and E. acervulina; assay: Anticoccidial activity in chicks (Table XIII); assay type: in vivo; set-up: Average Lesion Score, Intestinal / Average Lesion Score, Cecal: scale not given here; conditions: for Percent Mortality: due to coccidiosis; for Percent Weight Gain: per survivor; for Oocysts/Bird: total days 5, 6 and 7 post-inoculation; for Feed/Gain: pens without deaths only
Source text: ^2 Six replicates; 5 birds/each
^5 Pens without deaths, only
^6 Total days 5, 6 and 7 post-inoculation

coccidia = assay: Feeding experiments in young chickens challenged with coccidia; assay type: in vivo, Eimeria species; conditions: feed levels as low as 40 ppm
rumen flora = assay: Volatile-fatty-acid (VFA) production in treated vs control flasks (Table XIV)
[5] = Ruminal propionate in sheep (Table XVI); assay type: in vivo; conditions: 15 g/ton, 19-day treatment, control 26.5
Source text: Table XVI summarizes the results of a similar test in sheep with A-32887 (Na-K salt) wherein four sheep were in each group and the mean percent increases in ruminal propionate concentration were averaged over four analyses in a 19-day treatment period.

acute swine dysentery = assay: Swine dysentery test in pigs (Table XVII); assay type: in vivo
Description: In another aspect the A-32887 compounds are useful in the prevention and control of swine dysentery. A preferred method of administration to swine is by incorporation of an appropriate amount of an A-32887 compound into the feed ration. […] In this test, groups of four pigs were challenged orally with 5.0 ml of a colon-content/tissue suspension prepared from pigs suffering from acute swine dysentery. Treated pigs were challenged 24 hours after initiating feed treatment. The test was carried out over a period of 26 days, observing pigs daily, and weighing them weekly and on day 26.
*Fecal material for each group was rated daily with 0=normal, 1=slight
blood or mucus, 2=moderate blood or mucus, 3=marked blood or mucus. Index
is the total score per treatment for 25 days.

ATPase = ATPase inhibition in vitro using NaCl; assay type: biochemical
Source text: In yet another aspect, the A-32887 compounds are active as inhibitors of the enzyme ATPase. ATPase, an alkali-metal-sensitive enzyme found in cell membranes, is involved in the energy necessary for active transport. "Active transport" refers to the energy-requiring series of operations whereby intracellular and extracellular fluids maintain their compositions. Inhibitors of ATPase reduce the energy required for active transport.

CO[C@H]1CC[C@H](OC2[C@@H](C)[C@@](C)(O)O[C@H]([C@H]3CC[C@H]([C@@H]4CC[C@H]([C@@]5(C)O[C@]6(O[C@H](C[C@@H]7O[C@](O)([C@@H](O)C(=O)O)[C@@H](C)[C@H](OC)[C@@]7(C)OC)C[C@@H](OC)[C@H]6C)[C@H](C)[C@H]5OC)O4)O3)[C@H]2C)O[C@@H]1C.[K+].[Na+] (stereo partly shown) [A-32887 (Na-K salt)]
MIC [1]: 50.00 µg/mL | MIC [2]: 6.25 µg/mL | MIC (Staphylococcus sp.): 1.56 µg/mL | MIC (Streptococcus faecalis): 6.25 µg/mL | MIC (Streptococcus sp.): 3.12 µg/mL | MIC (Mycoplasma gallisepticum): 12.5 µg/mL | MIC (Mycoplasma hyopneumoniae): 6.25 µg/mL | MIC (Mycoplasma hyorhinis): 25.0 µg/mL | MIC (Mycoplasma synoviae): 3.12 µg/mL | Average Lesion Score, Cecal (E. tenella and E. maxima; 40 ppm): 1.6 | Average Lesion Score, Total Intestinal (E. tenella and E. maxima; 40 ppm): 4.9 | Mortality (E. tenella and E. maxima; 40 ppm in feed): 0 | Feed/Gain (E. tenella and E. maxima; 40 ppm): 1.89 | Average Weight Gain (E. tenella and E. maxima; 40 ppm): 176 g | Average Lesion Score, Cecal (E. tenella and E. maxima; 60 ppm): 0.6 | Average Lesion Score, Total Intestinal (E. tenella and E. maxima; 60 ppm): 5.9 | Mortality (E. tenella and E. maxima; 60 ppm in feed): 0 | Feed/Gain (E. tenella and E. maxima; 60 ppm): 1.83 | Average Weight Gain (E. tenella and E. maxima; 60 ppm): 155 g | Average Lesion Score, Cecal (E. tenella and E. maxima; 80 ppm): 0.3 | Average Lesion Score, Total Intestinal (E. tenella and E. maxima; 80 ppm): 3.0 | Mortality (E. tenella and E. maxima; 80 ppm in feed): 0 | Feed/Gain (E. tenella and E. maxima; 80 ppm): 1.83 | Average Weight Gain (E. tenella and E. maxima; 80 ppm): 182 g | Average Lesion Score, Cecal (E. tenella and E. maxima; 100 ppm): 0 | Average Lesion Score, Total Intestinal (E. tenella and E. maxima; 100 ppm): 1.6 | Mortality (E. tenella and E. maxima; 100 ppm in feed): 0 | Feed/Gain (E. tenella and E. maxima; 100 ppm): 1.87 | Average Weight Gain (E. tenella and E. maxima; 100 ppm): 159 g | Average Lesion Score, Cecal ([3]; 62 ppm): 0.1 | Average Lesion Score, Intestinal ([3]; 62 ppm): 0.9 | Oocysts Per Bird ([3]; 62 ppm): 16.40 1×10^6 | Percent Mortality ([3]; 62 ppm): 0% | Percent Weight Gain ([3]; 62 ppm): 97% | Average Lesion Score, Cecal ([3]; 77 ppm): 0 | Average Lesion Score, Intestinal ([3]; 77 ppm): 0.7 | Oocysts Per Bird ([3]; 77 ppm): 5.48 1×10^6 | Percent Mortality ([3]; 77 ppm): 0% | Percent Weight Gain ([3]; 77 ppm): 90% | Average Lesion Score, Cecal ([3]; 100 ppm): 0.1 | Average Lesion Score, Intestinal ([3]; 100 ppm): 0.6 | Oocysts Per Bird ([3]; 100 ppm): 1.28 1×10^6 | Percent Mortality ([3]; 100 ppm): 0% | Percent Weight Gain ([3]; 100 ppm): 85% | Average Lesion Score, Cecal ([3]; 121 ppm): 0 | Average Lesion Score, Intestinal ([3]; 121 ppm): 0.3 | Oocysts Per Bird ([3]; 121 ppm): 0.4 1×10^6 | Percent Mortality ([3]; 121 ppm): 0% | Percent Weight Gain ([3]; 121 ppm): 73% | Average Lesion Score, Cecal ([4]; 25 ppm): 3.9 | Average Lesion Score, Intestinal ([4]; 25 ppm): 1.1 | Percent Mortality ([4]; 25 ppm): 35% | Percent Weight Gain ([4]; 25 ppm): 57% | Oocysts/Bird ([4]; 25 ppm): 64.83 1×10^6 | Average Lesion Score, Cecal ([4]; 50 ppm): 3.8 | Average Lesion Score, Intestinal ([4]; 50 ppm): 1.8 | Percent Mortality ([4]; 50 ppm): 0% | Feed/Gain ([4]; 50 ppm): 1.67 | Percent Weight Gain ([4]; 50 ppm): 79% | Oocysts/Bird ([4]; 50 ppm): 35.78 1×10^6 | Average Lesion Score, Cecal ([4]; 75 ppm): 2.0 | Average Lesion Score, Intestinal ([4]; 75 ppm): 0.9 | Percent Mortality ([4]; 75 ppm): 0% | Feed/Gain ([4]; 75 ppm): 1.49 | Percent Weight Gain ([4]; 75 ppm): 90% | Oocysts/Bird ([4]; 75 ppm): 24.35 1×10^6 | Average Lesion Score, Cecal ([4]; 100 ppm): 0.1 | Average Lesion Score, Intestinal ([4]; 100 ppm): 0 | Percent Mortality ([4]; 100 ppm): 0% | Feed/Gain ([4]; 100 ppm): 1.50 | Percent Weight Gain ([4]; 100 ppm): 93% | Oocysts/Bird ([4]; 100 ppm): 6.49 1×10^6 | Mortality (coccidia): decreases | number of lesions (coccidia): decreases | Ratio of Treated to Control, Total VFA mM/1. (rumen flora; 1 mcg/ml): 0.7498 | Ratio of Treated to Control, Molar % Acetate (rumen flora; 10 mcg/ml): 0.8857 | Ratio of Treated to Control, Molar % Butyrate (rumen flora; 10 mcg/ml): 0.7012 | Ratio of Treated to Control, Total VFA mM/1. (rumen flora; 10 mcg/ml): 1.0086 | Ratio of Treated to Control, Molar % Propionate (rumen flora; 10 mcg/ml, * P<0.01): 1.2919 | Molar % Propionate [5]: 29.5 Molar % | Final-Average Wt. per Pig (acute swine dysentery; 100 g/ton in feed, 26 days): 30.3 lbs | No. Died per No. in Group (acute swine dysentery; 100 g/ton in feed, 26 days): 0/4 | No. with Colon Lesions/No. in Group (acute swine dysentery; 100 g/ton in feed, 26 days): 2/4 | Diarrhea Index (acute swine dysentery; 100 g/ton, total score per treatment for 25 days (0=normal to 3=marked blood or mucus)): 22 | ATPase inhibition (ATPase): inhibit ATPase

From patent publication US4133876A, “Antibiotic A-32887 and process for production thereof” (Eli Lilly and Company, priority 1977, dated 1979)
